How the values were obtained:
[1] = Monitoring of H2O2 and ClO2 levels in the test tank during the efficacy test; type: physicochemical
From the text: An apparatus was set up to simulate swimming pool conditions and followed the Australian Pesticides and Veterinary Medicines Authority (APMVA) guidelines. A water tank filled with 180 litres of water recirculates via an ECO 100 pump (Waterco) set at low speed. A Hydrochlor® head unit (Waterco) is connected to a 13-plate low salt cell which is set to run at 100% during the test. A Digiheat unit (Waterco) is set up to control temperature during the tests. A FlowVis® valve (Waterco) was used to estimate flow rate through the apparatus. […] A Kemio™ test kit (Palintest) was used to monitor chlorine dioxide levels. A WDPHRH PER Swimming Pool controller was used to monitor pH and oxidation-reduction potential (ORP) during the tests.

[2] = Field trials: stability of chlorine dioxide in water with hydrogen peroxide; type: physicochemical
From the text: For example, field trials indicate that chlorine dioxide will last in water up to 5 times longer when used in conjunction with hydrogen peroxide.
The process allows chlorine dioxide to remain active in water for up to and beyond 5 days.

[3] = produced by electrolysis with hydrogen peroxide present

With `OO` [Hydrogen peroxide] the “effect of the spike of pathogens on the level of the sanitiser” value [1] was “minimal”.
In the case of `[O][Cl+][O-]` [chlorine dioxide], the “effect of the spike of pathogens on the level of the sanitiser” value [1] is reported as “dramatically affected”, the “effect of ultraviolet light on chlorine dioxide residual in the water” value [2, 3] is reported as “does not diminish” and the “time chlorine dioxide remains active in water” value [2, 3] is reported as no less than 5 days. For the same molecule, the “effect of agitation on chlorine dioxide levels” value ([2]; used in conjunction with hydrogen peroxide) was “not affected by agitation” and the “how much longer chlorine dioxide will last in water” value ([2]; used in conjunction with hydrogen peroxide, field trials) was “up to 5 times longer”.
